{"source": "patent US12599560B2", "about": "“Lipids and lipid nanoparticle formulations” (Longuide Biopharma Corporation, priority 2023, dated 2026)", "key": {"[1]": {"test": "Osmotic pressure by freezing point osmometer", "format": "physicochemical", "conditions": "formulation No. 1, molar ratio 1.50:20:33.50:45.00", "experimental": "50 μL of the nucleic acid lipid nanoparticle solution (containing about 0.04 mg/mL mRNA) was taken and the osmotic pressure of the nanopreparation was detected by freezing point penetrometer (Gonotec GmbH, OSMOMAT 3000-D)."}, "[2]": {"test": "Particle size and PDI by dynamic light scattering", "format": "physicochemical", "conditions": "Table 2; for Particle size (nm): LNP formulation with mRNA; for PDI: polydispersity value", "in_short": "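Lipid nanoparticle solution (about 0.04 mg/mL mRNA) diluted in ultrapure water and particle size measured by dynamic light scattering on a Malvern instrument. Sample then further diluted with water for potential measurement.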"}, "A549 cells [3]": {"test_system": "A549 cells", "test": "Cytotoxicity assay (CCK-8), A549", "format": "cell-based", "experimental": "(§1) A549 cells were digested and collected the day before treatment and the cell concentration was adjusted to 2*10^5 cells/mL, 200 μL cell culture medium with a concentration of 2*10^5 cells/mL was added to the 96-well plate, resulting in approximately 4*10^4 cells per well in the 96-well plate. Digested and collected DC2.4 cells and adjusted the cell concentration to 1*10^5 cells/mL, added 200 μL cell culture medium with a concentration of 1*10^5 cells/mL to the 96-well plate, so that the number of cells per well in the 96-well plate is approximately 2*10^4. The cells were incubated in a cell culture incubator (Esco Micro Pte Ltd, Singapore, CLM-170B-8-NF) at 37° C. 5% CO2 for 24 h.\n(§2) On the day of cell treatment, the medium (Thermo Fisher Scientific) was aspirated from the 96-well plate, 200 μL of PBS was added to each well to rinse the cells and then the PBS (Thermo Fisher Scientific) was removed, and 180 μL of opti-MEM (Thermo Fisher Scientific) was added to each well of the treatment group.\n(§3) Different volumes of the preparation were taken and diluted by adding the buffer used for the preparation or the buffer used for dialysis, and four dosing concentrations were prepared for each preparation, and 20 μL of the diluted nanopreparation was added to each well of a 96-well plate (3 replicate wells for each concentration), and the dosing concentrations of the preparation were about 50 ng mRNA/well, 100 ng mRNA/well, 200 ng mRNA/well, and 300 ng mRNA/well, respectively.\n(§4) The 96-well cell culture plate was placed in a cell culture incubator and incubated at 37° C. 5% CO2 for 4 h. The medium was sucked up, and 200 μL of DMEM complete medium was added to each well and incubated for 20 h for detection.\n(§5) Diluted CCK-8 detection reagent (Shanghai Beyotime Biotechnology Co., Ltd.) masterbatch (900 μL complete medium+100 μL CCK-8 detection reagent) with DMEM complete medium at 9:1 to prepare CCK-8 working solution.\n(§6) Take out the 96-well cell culture plate and removed the supernatant. Before detection, the 96-well plate was added with 100 μL CCK-8 working solution, incubated in the cell culture incubator at 37° C. 5% CO2 for 2 h, and analyzed by plate reader. The cell viability was calculated to reflect the cytotoxicity."}, "DC2.4 cells [4]": {"test_system": "DC2.4 cells", "test": "Cell transfection assay (D-Luciferin), DC2.4", "format": "cell-based", "experimental": "as §1, §2, §3, §4\n(§7) D-Luciferin (Biohub International Trade Co., Ltd.) stock solution (9900 μL of complete medium+100 μL of 25 mg/mL of D-Luciferin stock solution) was diluted with DMEM complete medium at 99:1 to make a working solution at the concentration of 250 μg/mL (25 μg per well).\n(§8) The 96-well cell culture plate was taken out and the supernatant was removed. Before imaging, the 96-well plate was added with 100 μL of D-Luciferin working solution, incubated at 37° C. for 5 min, and imaged and analyzed by the plate reader."}, "DC2.4 cells [5]": {"test_system": "DC2.4 cells", "test": "Cytotoxicity assay (CCK-8), DC2.4", "format": "cell-based", "conditions": "formulation No. 2", "experimental": "as §1, §2, §3, §4, §5, §6"}, "mice": {"test_system": "mice", "test": "In vivo delivery of FLuc-mRNA lipid nanoparticle preparations in mice (IVIS imaging)", "parameters": "In vivo IVIS / In vivo IVIS (liver) / In vivo IVIS (spleen): unit not given here", "in_short": "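FLuc-mRNA LNPs given intramuscularly into thigh rectus femoris or intravenously via tail vein, about 75 μL per mouse, 3 mice. D-Luciferin (200 μL, 15 mg/mL) injected i.p. 10–15 min before IVIS imaging at set times after dosing.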"}, "A549 cells [6]": {"test_system": "A549 cells", "test": "Cell transfection assay (D-Luciferin), A549", "format": "cell-based", "experimental": "as §1, §2, §3, §4, §7, §8"}, "[7]": {"conditions": "molar ratio 1.50:11.50:38.50:48.50, N/P 24"}, "[8]": {"conditions": "molar ratio 1.50:20.00:33.50:45.00, N/P 40"}, "[9]": {"conditions": "molar ratio 1.71:12.98:45.31:40.00, N/P 40"}}, "data": [{"smiles": "CCCCCCCCCCCCOC(=O)C(O)CN(CCCN1CCN(CCCN(CC(O)C(=O)OCCCCCCCCCCCC)CC(O)C(=O)OCCCCCCCCCCCC)CC1)CC(O)C(=O)OCCCCCCCCCCCC", "note": "(stereo not shown) [Compound L0191]", "values": [{"measurement": "osmotic pressure", "setting": "[1]", "value": 2139}, {"measurement": "Particle size (nm)", "setting": "[2]; [7]", "value": "75.33 ± 0.78", "unit": "nm"}, {"measurement": "Particle size (nm)", "setting": "[2]; [8]", "value": "70.87 ± 0.35", "unit": "nm"}, {"measurement": "Particle size (nm)", "setting": "[2]; [9]", "value": "92.00 ± 0.39", "unit": "nm"}, {"measurement": "PDI", "setting": "[2]; [7]", "value": "0.10 ± 0.01"}, {"measurement": "PDI", "setting": "[2]; [8]", "value": "0.17 ± 0.01"}, {"measurement": "PDI", "setting": "[2]; [9]", "value": "0.15 ± 0.02"}, {"measurement": "cellular toxicity (in words)", "setting": "A549 cells [3]; all tested formulations, even at high doses, e.g., 300 ng/well", "value": "low to no cellular toxicity"}, {"measurement": "A549 cellular tox (% cells alive)", "setting": "A549 cells [3]; formulation No. 1, 50 ng/well", "value": 103.42, "unit": "%"}, {"measurement": "A549 cellular tox (% cells alive)", "setting": "A549 cells [3]; formulation No. 1, 100 ng/well", "value": 105.39, "unit": "%"}, {"measurement": "A549 cellular tox (% cells alive)", "setting": "A549 cells [3]; formulation No. 1, 200 ng/well", "value": 103.90, "unit": "%"}, {"measurement": "A549 cellular tox (% cells alive)", "setting": "A549 cells [3]; formulation No. 1, 300 ng/well", "value": 103.50, "unit": "%"}, {"measurement": "A549 cellular tox (% cells alive)", "setting": "A549 cells [3]; formulation No. 2, 50 ng/well", "value": 103.82, "unit": "%"}, {"measurement": "A549 cellular tox (% cells alive)", "setting": "A549 cells [3]; formulation No. 2, 100 ng/well", "value": 105.86, "unit": "%"}, {"measurement": "A549 cellular tox (% cells alive)", "setting": "A549 cells [3]; formulation No. 2, 200 ng/well", "value": 109.06, "unit": "%"}, {"measurement": "A549 cellular tox (% cells alive)", "setting": "A549 cells [3]; formulation No. 2, 300 ng/well", "value": 104.35, "unit": "%"}, {"measurement": "DC2.4 cell transfection/RLU", "setting": "DC2.4 cells [4]; formulation No. 1, 50 ng/well", "value": 44580.00, "unit": "RLU"}, {"measurement": "DC2.4 cell transfection/RLU", "setting": "DC2.4 cells [4]; formulation No. 1, 100 ng/well", "value": 38457.67, "unit": "RLU"}, {"measurement": "DC2.4 cell transfection/RLU", "setting": "DC2.4 cells [4]; formulation No. 1, 200 ng/well", "value": 51212.00, "unit": "RLU"}, {"measurement": "DC2.4 cell transfection/RLU", "setting": "DC2.4 cells [4]; formulation No. 1, 300 ng/well", "value": 49462.00, "unit": "RLU"}, {"measurement": "DC2.4 cell transfection/RLU", "setting": "DC2.4 cells [4]; formulation No. 2, 50 ng/well", "value": 22385.67, "unit": "RLU"}, {"measurement": "DC2.4 cell transfection/RLU", "setting": "DC2.4 cells [4]; formulation No. 2, 100 ng/well", "value": 31266.67, "unit": "RLU"}, {"measurement": "DC2.4 cell transfection/RLU", "setting": "DC2.4 cells [4]; formulation No. 2, 200 ng/well", "value": 45175.33, "unit": "RLU"}, {"measurement": "DC2.4 cell transfection/RLU", "setting": "DC2.4 cells [4]; formulation No. 2, 300 ng/well", "value": 66928.33, "unit": "RLU"}, {"measurement": "DC2.4 cellular tox (% cells alive)", "setting": "DC2.4 cells [5]; 50 ng/well", "value": 95.97, "unit": "%"}, {"measurement": "DC2.4 cellular tox (% cells alive)", "setting": "DC2.4 cells [5]; 100 ng/well", "value": 87.33, "unit": "%"}, {"measurement": "DC2.4 cellular tox (% cells alive)", "setting": "DC2.4 cells [5]; 200 ng/well", "value": 75.79, "unit": "%"}, {"measurement": "DC2.4 cellular tox (% cells alive)", "setting": "DC2.4 cells [5]; 300 ng/well", "value": 92.20, "unit": "%"}, {"measurement": "In vivo IVIS", "setting": "mice; Table 2, IM, whole body scan", "value": "8.97 × 10^7"}, {"measurement": "In vivo IVIS (liver)", "setting": "mice; Table 2, IV, liver", "value": "2.77 × 10^8"}, {"measurement": "In vivo IVIS (spleen)", "setting": "mice; Table 2, IV, spleen", "value": "1.03 × 10^8"}, {"measurement": "In vivo IVIS", "setting": "mice; Table 4, IM", "value": "2.12 × 10^7"}, {"measurement": "In vivo IVIS", "setting": "mice; Table 4, IV", "value": "9.64 × 10^8"}, {"measurement": "in vivo delivery efficiency as compared to the benchmark compound SM102", "setting": "mice; certain formulations, Table 2", "value": "superior in vivo delivery efficiency"}, {"measurement": "transfection efficiency (in words)", "setting": "A549 cells [6]; all tested formulations, A549 and DC2.4 cells", "value": "high"}, {"measurement": "A549 transfection/RLU", "setting": "A549 cells [6]; formulation No. 1 (1.50:20:33.50:45.00), 50 ng/well", "value": 61522.00, "unit": "RLU"}, {"measurement": "A549 transfection/RLU", "setting": "A549 cells [6]; formulation No. 1, 100 ng/well", "value": 80557.33, "unit": "RLU"}, {"measurement": "A549 transfection/RLU", "setting": "A549 cells [6]; formulation No. 1, 200 ng/well", "value": 81404.33, "unit": "RLU"}, {"measurement": "A549 transfection/RLU", "setting": "A549 cells [6]; formulation No. 1, 300 ng/well", "value": 84806.33, "unit": "RLU"}, {"measurement": "A549 transfection/RLU", "setting": "A549 cells [6]; formulation No. 2 (1.50:11.50:38.50:48.50), 50 ng/well", "value": 31491.33, "unit": "RLU"}, {"measurement": "A549 transfection/RLU", "setting": "A549 cells [6]; formulation No. 2, 100 ng/well", "value": 54866.67, "unit": "RLU"}, {"measurement": "A549 transfection/RLU", "setting": "A549 cells [6]; formulation No. 2, 200 ng/well", "value": 90775.67, "unit": "RLU"}, {"measurement": "A549 transfection/RLU", "setting": "A549 cells [6]; formulation No. 2, 300 ng/well", "value": 88154.33, "unit": "RLU"}]}]}
